# Reference: PubChem BioAssay AID248 (DTP/NCI, 2004)
# Where “and” joins values, the source holds several entries; their conditions need not be identical. Equal values may be shown once. Toxic doses and inconclusive results are not listed.
# Tested on: L1210 leukemia ip in BDF1 mice, survival T/C
# Assay: NCI In Vivo Anticancer Drug Screen. Data for tumor model L1210 Leukemia (intraperitoneal) in B6D2F1 (BDF1) mice
# Details: endpoint: mean survival time, higher = longer survival
# How it was run: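 Transplantable tumor model; survival measured in treated vs vehicle control mice. Value = treated/control.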
# [1] = dose: 50.0 mg/kg/injection, schedule: Q01DX009 (ip), vehicle: saline with Tween-80
# [2] = dose: 100.0 mg/kg/injection, schedule: Q01DX009 (ip), vehicle: saline with Tween-80
# [3] = dose: 200.0 mg/kg/injection, schedule: Q01DX009 (ip), vehicle: saline with Tween-80
# [4] = dose: 100.0 mg/kg/injection, schedule: Q04DX003 (ip), vehicle: saline with Tween-80
# [5] = dose: 200.0 mg/kg/injection, schedule: Q04DX003 (ip), vehicle: saline with Tween-80
# [6] = dose: 400.0 mg/kg/injection, schedule: Q04DX003 (ip), vehicle: saline with Tween-80
# [7] = dose: 100.0 mg/kg/injection, schedule: Q04DX003 (ip), vehicle: Klucel (hydroxypropylcellulose) (HPC)
# [8] = dose: 200.0 mg/kg/injection, schedule: Q04DX003 (ip), vehicle: Klucel (hydroxypropylcellulose) (HPC)
# [9] = dose: 400.0 mg/kg/injection, schedule: Q04DX003 (ip), vehicle: Klucel (hydroxypropylcellulose) (HPC)
structure (smiles),measurement,setting,value
CCN(CC)CCCC(C)NC(=O)c1cc(=O)[nH]c(=O)[nH]1 (configuration not stated),T/C,"dose: 25.0 mg/kg/injection, schedule: Q01DX009 (ip), vehicle: water",106 % of control
same,T/C,"dose: 50.0 mg/kg/injection, schedule: Q01DX009 (ip), vehicle: water",96 % of control
same,T/C,"dose: 100.0 mg/kg/injection, schedule: Q01DX009 (ip), vehicle: water",103 % of control and 91 % of control
same,T/C,"dose: 100.0 mg/kg/injection, schedule: Q04DX003 (ip), vehicle: water",104 % of control
same,T/C,"dose: 200.0 mg/kg/injection, schedule: Q04DX003 (ip), vehicle: water",101 % of control
COc1ccc(-c2oc3ccccc3c(=O)c2O)cc1OC,T/C,"dose: 50.0 mg/kg/injection, schedule: Q01DX001 (ip), vehicle: saline",87 % of control
same,T/C,"dose: 100.0 mg/kg/injection, schedule: Q01DX001 (ip), vehicle: saline",98 % of control
same,T/C,"dose: 200.0 mg/kg/injection, schedule: Q01DX001 (ip), vehicle: saline",91 % of control
same,T/C,"dose: 400.0 mg/kg/injection, schedule: Q01DX001 (ip), vehicle: saline",93 % of control
O=C(CNC(=O)NCc1ccccc1)N/N=C/c1ccccc1O,T/C,[1],89 % of control
same,T/C,[2],103 % of control
same,T/C,[3],97 % of control
Cc1ccc(COC(=O)Nc2ccc(Cl)c([N+](=O)[O-])c2)cc1,T/C,[2],92 % of control
same,T/C,[4],102 % of control
same,T/C,[3],100 % of control
same,T/C,[5],100 % of control
same,T/C,"dose: 400.0 mg/kg/injection, schedule: Q01DX009 (ip), vehicle: saline with Tween-80",95 % of control
same,T/C,[6],100 % of control
Nc1nc(NCCCc2ccccc2)cc(=O)[nH]1,T/C,"dose: 25.0 mg/kg/injection, schedule: Q04DX003 (ip), vehicle: saline with Tween-80",98 % of control
same,T/C,"dose: 50.0 mg/kg/injection, schedule: Q04DX003 (ip), vehicle: saline with Tween-80",92 % of control
O=C1c2ccccc2C(C2c3ccccc3C(=O)c3ccccc32)c2ccccc21,T/C,"dose: 50.0 mg/kg/injection, schedule: Q01DX001 (ip), vehicle: carboxymethylcellulose (CMC)",89 % of control
same,T/C,"dose: 100.0 mg/kg/injection, schedule: Q01DX001 (ip), vehicle: carboxymethylcellulose (CMC)",89 % of control
same,T/C,"dose: 400.0 mg/kg/injection, schedule: Q01DX001 (ip), vehicle: carboxymethylcellulose (CMC)",86 % of control
c1ccc2nc3c(cc2c1)NCC3,T/C,"dose: 100.0 mg/kg/injection, schedule: Q01DX001 (ip), vehicle: Klucel (hydroxypropylcellulose) (HPC)",95 % of control
same,T/C,"dose: 200.0 mg/kg/injection, schedule: Q01DX001 (ip), vehicle: Klucel (hydroxypropylcellulose) (HPC)",97 % of control
same,T/C,"dose: 400.0 mg/kg/injection, schedule: Q01DX001 (ip), vehicle: Klucel (hydroxypropylcellulose) (HPC)",109 % of control
CC(OC(=O)c1ccc([N+](=O)[O-])cc1)C(C)(C)C (configuration not stated),T/C,"dose: 100.0 mg/kg/injection, schedule: Q04DX002 (ip), vehicle: Klucel (hydroxypropylcellulose) (HPC)",109 % of control
same,T/C,"dose: 200.0 mg/kg/injection, schedule: Q04DX002 (ip), vehicle: Klucel (hydroxypropylcellulose) (HPC)",123 % of control
same,T/C,"dose: 400.0 mg/kg/injection, schedule: Q04DX002 (ip), vehicle: Klucel (hydroxypropylcellulose) (HPC)",113 % of control
Ic1ccc(Oc2ccc(I)cc2)cc1,T/C,[7],113 % of control
same,T/C,[8],90 % of control
same,T/C,"dose: 222.0 mg/kg/injection, schedule: Q01DX Z (ip), vehicle: methylcellulose (MC)",92 % of control
same,T/C,"dose: 333.0 mg/kg/injection, schedule: Q01DX Z (ip), vehicle: methylcellulose (MC)",92 % of control
same,T/C,[9],98 % of control
same,T/C,"dose: 500.0 mg/kg/injection, schedule: Q01DX Z (ip), vehicle: methylcellulose (MC)",100 % of control
Nc1cccc(CC(=O)Nc2ccccc2)c1,T/C,"dose: 100.0 mg/kg/injection, schedule: Q01DX009 (ip), vehicle: alcohol",93 % of control
same,T/C,"dose: 100.0 mg/kg/injection, schedule: Q04DX003 (ip), vehicle: alcohol",97 % of control
same,T/C,"dose: 200.0 mg/kg/injection, schedule: Q01DX009 (ip), vehicle: alcohol",105 % of control
same,T/C,"dose: 200.0 mg/kg/injection, schedule: Q04DX003 (ip), vehicle: alcohol",100 % of control
same,T/C,"dose: 400.0 mg/kg/injection, schedule: Q01DX009 (ip), vehicle: alcohol",103 % of control
same,T/C,"dose: 400.0 mg/kg/injection, schedule: Q04DX003 (ip), vehicle: alcohol",100 % of control
CNc1ccc(C(=O)C2CC2)cc1,T/C,[2],92 % of control
same,T/C,[4],100 % of control
same,T/C,[3],98 % of control
same,T/C,[5],100 % of control
same,T/C,[6],86 % of control
COc1ccc(CC(=O)NCCc2ccc3c(c2)OCO3)cc1OC,T/C,[1],89 % of control
same,T/C,[2],91 % of control
same,T/C,[4],92 % of control
same,T/C,[3],92 % of control
same,T/C,[5],96 % of control
O=C(CCCc1ccc(N(CCCl)CCCl)cc1)Nc1ccccc1,T/C,"dose: 4.0 mg/kg/injection, schedule: Q12HX018 (ip), vehicle: Klucel (hydroxypropylcellulose) (HPC)",102 % of control
same,T/C,"dose: 4.0 mg/kg/injection, schedule: Q12HX018 (ip), vehicle: other",103 % of control
same,T/C,"dose: 6.0 mg/kg/injection, schedule: Q12HX018 (ip), vehicle: other",101 % of control
same,T/C,"dose: 8.0 mg/kg/injection, schedule: Q12HX018 (ip), vehicle: Klucel (hydroxypropylcellulose) (HPC)",109 % of control
same,T/C,"dose: 8.0 mg/kg/injection, schedule: Q12HX018 (ip), vehicle: other",103 % of control
same,T/C,"dose: 16.0 mg/kg/injection, schedule: Q12HX018 (ip), vehicle: Klucel (hydroxypropylcellulose) (HPC)",104 % of control
CC(c1ccccc1)C1N(c2ccccc2)CCN1c1ccccc1 (configuration not stated),T/C,[7],94 % of control
same,T/C,[8],100 % of control
same,T/C,[9],102 % of control
NNC(=O)C12CCCCC1CCC2 (configuration not stated),T/C,"dose: 100.0 mg/kg/injection, schedule: Q01DX009 (ip), vehicle: acetone",88 % of control
same,T/C,"dose: 100.0 mg/kg/injection, schedule: Q04DX003 (ip), vehicle: acetone",100 % of control
same,T/C,"dose: 200.0 mg/kg/injection, schedule: Q04DX003 (ip), vehicle: acetone",100 % of control
same,T/C,"dose: 400.0 mg/kg/injection, schedule: Q01DX009 (ip), vehicle: acetone",87 % of control
same,T/C,"dose: 400.0 mg/kg/injection, schedule: Q04DX003 (ip), vehicle: acetone",105 % of control
O=C1C(F)=C(N2CC2)C(=O)C(N2CCOCC2)=C1N1CC1,T/C,"dose: 0.39 mg/kg/injection, schedule: Q04DX003 (ip), vehicle: saline",94 % of control and 108 % of control
same,T/C,"dose: 0.75 mg/kg/injection, schedule: Q01DX009 (ip), vehicle: saline",114 % of control and 122 % of control
same,T/C,"dose: 0.78 mg/kg/injection, schedule: Q04DX003 (ip), vehicle: saline",100 % of control
same,T/C,"dose: 1.5 mg/kg/injection, schedule: Q01DX009 (ip), vehicle: saline",111 % of control
same,T/C,"dose: 1.56 mg/kg/injection, schedule: Q04DX003 (ip), vehicle: saline",102 % of control and 112 % of control
same,T/C,"dose: 3.0 mg/kg/injection, schedule: Q01DX009 (ip), vehicle: saline",110 % of control and 112 % of control
same,T/C,"dose: 3.12 mg/kg/injection, schedule: Q01DX001 (ip), vehicle: saline",91 % of control
same,T/C,"dose: 3.12 mg/kg/injection, schedule: Q04DX003 (ip), vehicle: saline",105 % of control and 107 % of control
same,T/C,"dose: 6.0 mg/kg/injection, schedule: Q01DX009 (ip), vehicle: saline",111 % of control
same,T/C,"dose: 6.25 mg/kg/injection, schedule: Q01DX001 (ip), vehicle: saline",104 % of control
same,T/C,"dose: 6.25 mg/kg/injection, schedule: Q04DX003 (ip), vehicle: saline",105 % of control and 121 % of control
same,T/C,"dose: 12.5 mg/kg/injection, schedule: Q01DX001 (ip), vehicle: saline",92 % of control
Nc1nc(N)c2nc(CN(CCO)c3ccc(C(=O)NC(CCC(=O)O)C(=O)O)cc3)cnc2n1 (configuration not stated),T/C,"dose: 1.0 mg/kg/injection, schedule: Q01DX009 (ip), vehicle: sodium bicarbonate",151 % of control
same,T/C,"dose: 2.0 mg/kg/injection, schedule: Q01DX009 (ip), vehicle: Klucel (hydroxypropylcellulose) (HPC)",174 % of control
same,T/C,"dose: 2.0 mg/kg/injection, schedule: Q01DX009 (ip), vehicle: sodium bicarbonate",172 % of control
same,T/C,"dose: 4.0 mg/kg/injection, schedule: Q01DX009 (ip), vehicle: Klucel (hydroxypropylcellulose) (HPC)",160 % of control
same,T/C,"dose: 4.0 mg/kg/injection, schedule: Q01DX009 (ip), vehicle: sodium bicarbonate",178 % of control
same,T/C,"dose: 8.0 mg/kg/injection, schedule: Q01DX009 (ip), vehicle: Klucel (hydroxypropylcellulose) (HPC)",151 % of control
same,T/C,"dose: 8.0 mg/kg/injection, schedule: Q01DX009 (ip), vehicle: sodium bicarbonate",113 % of control
same,T/C,"dose: 16.0 mg/kg/injection, schedule: Q01DX009 (ip), vehicle: Klucel (hydroxypropylcellulose) (HPC)",108 % of control
same,T/C,"dose: 16.0 mg/kg/injection, schedule: Q01DX009 (ip), vehicle: sodium bicarbonate",89 % of control
same,T/C,"dose: 32.0 mg/kg/injection, schedule: Q01DX009 (ip), vehicle: Klucel (hydroxypropylcellulose) (HPC)",96 % of control
